From patent US9737559B2, “Synergistic anti-diabetic compositions” (Ozstar Therapeutics Pty Ltd, priority 2011, dated 2017)

Legend:
Assay type in all cases: in vivo, human
[1] = test system: patient with T2DM; experiment: Gliclazide/inulin combination therapy, extended case report: FBG, HA1C and lipid profiles; conditions: Gliclazide 30 mg once daily for nearly a decade, before inulin
From the text: This patient began the combination therapy with a commercially available inulin (Cl) as previously described in PCT/AU2011/000622, the contents of which are incorporated herein in their entirety. Various blood parameter measurements were as described PCT/AU2011/000622.

[2] = test system: patient with T2DM; experiment: Glimepiride/inulin combination therapy, T2DM case report, FBG
Experimental: Doctor recommended diet-only treatment. […] The dose was increased in a 1 mg increment and currently this patient is taking 4 mg once daily Glimepiride. [table] Blood sugar level was determined using Accu-Chek Performa (Roche, Mannheim, Germany) device (CAT/TYP 04680464003 mmol/L and 55405079196) according to manufacturer instructions. During baseline measurements of FBG levels, patient was on Glimepiride at the dose of 4 mg once daily.

[3] = test system: patient with T2DM; experiment: Glipizide/inulin combination therapy, T2DM case report, FBG
Experimental: person, with body mass index of 29 classified as overweight, with the family history of T2DM.
[…] the patient was diagnosed with T2DM. Doctor recommended diet-only treatment. […] due to increased FBG levels the patient was treated with Glipizide (5 mg/day, 5 mg once daily). The dose was increased in a 5 mg increment and currently this patient is taking 15 mg/day, 5 mg three times a day, Glipizide.
Blood sugar level was determined using Accu-Chek Performs (Roche, Mannheim, Germany) device (CAT/TYP 04680464002 mmol/L and 55403057614) according to manufacturer instructions.
During baseline measurements of FBG level, patient was on Glipizide at the dose of 15 mg per day.
inulin introduced at 3 g/day (1 g with each meal, 3 times a day) for one week. Inulin amount was increased to 6 g/day (2 g with each meal, 3 times a day) at week 2, 9 g/day (3 g with each meal, 3 times a day) at week 3 and 12 g/day (4 g with each meal, 3 times a day) at week 4.
Patient continued taking inulin with meal at 4 g/meal (12 gr/day total).

Structure (SMILES): Cc1ccc(S(=O)(=O)NC(=O)NN2CC3CCCC3C2)cc1 (centres unmarked) [Gliclazide]
- blood glucose levels [1]: above 9 mmol/L

Structure (SMILES): CCC1=C(C)CN(C(=O)NCCc2ccc(S(=O)(=O)NC(=O)N[C@H]3CC[C@H](C)CC3)cc2)C1=O [Glimepiride]
- FBG at baseline ([2]; Glimepiride 4 mg once daily, no inulin, June 2011): ~8 mmol/L
- FBG level prior to inulin combination therapy ([2]; Glimepiride monotherapy, a couple of years prior to inulin): above 7 mmol/L

Structure (SMILES): Cc1cnc(C(=O)NCCc2ccc(S(=O)(=O)NC(=O)NC3CCCCC3)cc2)cn1 [Glipizide]
- FBG at baseline ([3]; Glipizide 15 mg per day, no inulin, July 2011): ~6.5 mmol/L
- FBG level prior to inulin combination therapy ([3]; Glipizide monotherapy, a couple of years prior to inulin): around 7 mmol/L
